Assay results from patent US20230303542A1, “SOLID FORMS OF A PARP14 INHIBITOR” (Ribon Therapeutics, Inc., priority 2022, published 2023).
In brackets after ≈: the same amount, converted by molar mass. Values belong to the molecule of their own block, whether it stands above or below them.

Tests used:
Type in all cases: physicochemical
[1] = Preliminary solubility of Compound 1 Form I, visual assessment; conditions: thermodynamic from solid, estimated via visual assessment
[2] = Dynamic solubility of Form II in single solvents, dissolution observed visually; conditions: thermodynamic from solid, 22° C.
Experimental: An appropriate amount of Form II was weighed into a sample vial and then the indicated solvent was added gradually until all the solid was dissolved at RT. The dissolution was observed visually.

[3] = Solid-state stability study (HPLC purity and XRPD); conditions: 60° C. (closed) and 40° C./75%RH for 14 days
Experimental: HPLC analysis was performed with an Agilent HPLC 1260 series instrument.
At day 0, 7 and 14, the sample was dissolved in diluent to prepare solution for HPLC purity analysis. Solid samples were analyzed by XRPD to check the crystal form.
(closed) and 40° C./75%RH (open) up to 14 days, samples were prepared in duplicate for each condition. […] (closed) and 40° C./75%RH for 14 days.

[4] = Kinetic solubility of Form II, clear temperature point by Crystal 16; conditions: organic solvent or mixture, thermodynamic from solid; at 30° C.; volume ratio of MeOH-water/MTBE 9/1/30
[5] = Dynamic solubility of Form II in mixed solvents, dissolution observed visually; conditions: thermodynamic from solid
Text: The solubility data was used to control supersaturation and calculate theoretical yield of the crystallization process.

[6] = organic solvent or mixture, 2-Me-THF
[7] = organic solvent or mixture, Acetone
[8] = organic solvent or mixture, Ethanol (EtOH)
[9] = organic solvent or mixture, Ethyl acetate (EA)
[10] = organic solvent or mixture, Methanol (MeOH)
[11] = organic solvent or mixture, Methyl ethyl ketone (MEK)

solubility [1, 6]: 10000 µg/mL (≈ 22.2 mM)
solubility ([1]; organic solvent or mixture, ACN): < 600 µg/mL
solubility [1, 7]: 1000 µg/mL (≈ 2.22 mM)
solubility ([1]; organic solvent or mixture, DCM): 6300 µg/mL (≈ 14 mM)
solubility ([1]; organic solvent or mixture, DMSO): 16700 µg/mL (≈ 37.1 mM)
solubility [1, 8]: 3300 µg/mL (≈ 7.34 mM)
solubility [1, 9]: 2500 µg/mL (≈ 5.56 mM)
solubility ([1]; organic solvent or mixture, Heptane): < 600 µg/mL
solubility ([1]; organic solvent or mixture, Isopropyl acetate (IPAC)): 1300 µg/mL (≈ 2.89 mM)
solubility ([1]; organic solvent or mixture, Isopropyl alcohol (IPA)): < 600 µg/mL
solubility [1, 10]: 10000 µg/mL (≈ 22.2 mM)
solubility [1, 11]: 10000 µg/mL (≈ 22.2 mM)
solubility ([1]; organic solvent or mixture, Methyl tert-butyl ether (MTBE)): < 600 µg/mL
solubility ([1]; organic solvent or mixture, THF): 4200 µg/mL (≈ 9.34 mM)
solubility ([1]; organic solvent or mixture, Toluene): < 600 µg/mL
solubility ([1]; Water): < 600 µg/mL
Structure (SMILES): CC(=O)N1CCC(COc2cc(F)c3c(=O)[nH]c(CSC4CCOCC4)nc3c2)CC1 [Form I, 7-((1-acetylpiperidin-4-yl)methoxy)-5-fluoro-2-(((tetrahydro-2H-pyran-4-yl)thio)methyl)quinazolin-4(3H)-one]

solubility [2, 6]: 700 µg/mL (≈ 1.56 mM)
solubility ([2]; organic solvent or mixture, 2-Propanol (IPA)): < 600 µg/mL
solubility ([2]; organic solvent or mixture, Acetic acid): > 167000 µg/mL
solubility [2, 7]: 800 µg/mL (≈ 1.78 mM)
solubility ([2]; organic solvent or mixture, Acetonitrile (ACN)): 600 µg/mL (≈ 1.33 mM)
solubility ([2]; organic solvent or mixture, Dichloromethane (DCM)): 16700 µg/mL (≈ 37.1 mM)
solubility ([2]; organic solvent or mixture, Dimethyl sulfoxide (DMSO)): 12500 µg/mL (≈ 27.8 mM)
solubility [2, 8]: 1000 µg/mL (≈ 2.22 mM)
solubility [2, 9]: < 600 µg/mL
solubility ([2]; organic solvent or mixture, Isopropyl acetate (IPAc)): < 600 µg/mL
solubility [2, 10]: 8300 µg/mL (≈ 18.5 mM)
solubility [2, 11]: 1700 µg/mL (≈ 3.78 mM)
solubility ([2]; organic solvent or mixture, Tert-Butyl methyl ether (MTBE)): < 600 µg/mL
solubility ([2]; organic solvent or mixture, Tetrahydrofuran (THF)): 4200 µg/mL (≈ 9.34 mM)
solubility ([2]; organic solvent or mixture, Toluene (Tol)): < 600 µg/mL
solubility ([2]; organic solvent or mixture, n-Heptane (Hept)): < 600 µg/mL
solubility ([2]; Water): < 600 µg/mL
Physical and chemical stability [3]: both physically and chemically stable
solubility at 30 min [4]: 6500 µg/mL
solubility ([5]; MeOH/Anisole (1/2), organic solvent or mixture, MeOH/Anisole (½), 25° C.): ~150000 µg/mL (≈ 334 mM)
solubility ([5]; MeOH/Anisole (1/2), organic solvent or mixture, MeOH/Anisole (½), 40° C.): > 200000 µg/mL
solubility ([5]; organic solvent or mixture, Anisole, 25° C.): < 1000 µg/mL
solubility ([5]; organic solvent or mixture, MeOH/Anisole (1/1), 25° C.): 163000 to 176000 µg/mL (≈ 363 to 392 mM)
solubility ([5]; organic solvent or mixture, MeOH/Anisole (1/1), 40° C.): ~250000 µg/mL (≈ 556 mM)
solubility ([5]; organic solvent or mixture, MeOH/Anisole (2/1), 25° C.): 96000 to 106000 µg/mL (≈ 214 to 236 mM)
solubility at 30 min ([5]; organic solvent or mixture, MeOH/Anisole, volume ratio 1/1, RT, read-out: Solubility): 150000 to 160000 µg/mL
solubility ([5]; organic solvent or mixture, MeOH/Anisole/Hept (1/1/6), 25° C.): < 5000 µg/mL
solubility ([5]; organic solvent or mixture, MeOH/Anisole/Hept (1/2/3), 25° C.): > 10000 µg/mL
solubility ([5]; organic solvent or mixture, MeOH/Anisole/Hept (1/2/6), 25° C.): ~5000 µg/mL (≈ 11.1 mM)
solubility ([5]; organic solvent or mixture, MeOH/Anisole/MTBE (1/2/6), 25° C.): ~3000 µg/mL (≈ 6.67 mM)
solubility at 30 min ([5]; organic solvent or mixture, MeOH/MEK, volume ratio 1/1, RT, read-out: Solubility): 20000 to 30000 µg/mL
solubility ([5]; organic solvent or mixture, MeOH/water (7/3), 60° C.): ~125000 µg/mL (≈ 278 mM)
solubility at 30 min ([5]; organic solvent or mixture, MeOH/water (7/3), RT, read-out: Dynamic solubility): 10000 to 13000 µg/mL (≈ 22.2 to 28.9 mM)
solubility ([5]; organic solvent or mixture, MeOH/water (8/2), 50° C.): 50000 to 100000 µg/mL (≈ 111 to 222 mM)
solubility ([5]; organic solvent or mixture, MeOH/water (8/2), 60° C.): > 125000 µg/mL
solubility at 30 min ([5]; organic solvent or mixture, MeOH/water (8/2), RT, read-out: Dynamic solubility): 13000 to 17000 µg/mL (≈ 28.9 to 37.8 mM)
solubility ([5]; organic solvent or mixture, MeOH/water (9/1), 0° C.): 6000 to 10000 µg/mL (≈ 13.3 to 22.2 mM)
solubility ([5]; organic solvent or mixture, MeOH/water (9/1), 60° C.): > 125000 µg/mL
solubility at 30 min ([5]; organic solvent or mixture, MeOH/water (9/1), RT (Table of MeOH/Water), read-out: Dynamic solubility): 10000 to 13000 µg/mL (≈ 22.2 to 28.9 mM)
solubility at 30 min ([5]; organic solvent or mixture, MeOH/water, volume ratio 9/1, RT (Table of mixed solvents at RT), read-out: Solubility): 35000 to 43000 µg/mL
solubility ([5]; organic solvent or mixture, MeOH/water/MTBE (9/1/10), 0° C.): > 4500 µg/mL
solubility ([5]; organic solvent or mixture, MeOH/water/MTBE (9/1/20), 0° C.): ~3000 µg/mL (≈ 6.67 mM)
solubility ([5]; organic solvent or mixture, MeOH, 25° C.): 8300 µg/mL (≈ 18.5 mM)
solubility ([5]; organic solvent or mixture, MeOH, 50° C.): 29000 to 33000 µg/mL (≈ 64.5 to 73.4 mM)
solubility ([5]; organic solvent or mixture, MeOH, 60° C.): 71000 to 83000 µg/mL (≈ 158 to 185 mM)
solubility at 30 min ([5]; organic solvent or mixture, MeOH, RT, read-out: Dynamic solubility): 8300 µg/mL (≈ 18.5 mM)
solubility at 30 min ([5]; volume ratio 1/2, organic solvent or mixture, Ethyl formate/Acetone, volume ratio ½, RT, read-out: Solubility): < 2000 µg/mL
solubility at 30 min ([5]; volume ratio 1/2, organic solvent or mixture, Ethyl formate/EA, volume ratio ½, RT, read-out: Solubility): < 1000 µg/mL
solubility at 30 min ([5]; volume ratio 1/2, organic solvent or mixture, Ethyl formate/IPA, volume ratio ½, RT, read-out: Solubility): < 2000 µg/mL
solubility at 30 min ([5]; volume ratio 1/2, organic solvent or mixture, Ethyl formate/IPAC, volume ratio ½, RT, read-out: Solubility): < 1000 µg/mL
solubility at 30 min ([5]; volume ratio 1/2, organic solvent or mixture, Ethyl formate/MEK, volume ratio ½, RT, read-out: Solubility): < 2000 µg/mL
solubility at 30 min ([5]; volume ratio 1/2, organic solvent or mixture, Ethyl formate/MTBE, volume ratio ½, RT, read-out: Solubility): < 2000 µg/mL
solubility at 30 min ([5]; volume ratio 1/2, organic solvent or mixture, Ethyl formate/diethyl ether, volume ratio ½, RT, read-out: Solubility): 7000 to 8000 µg/mL
solubility at 30 min ([5]; volume ratio 1/2, organic solvent or mixture, Ethyl formate/n-BuOH, volume ratio ½, RT, read-out: Solubility): 3000 to 4000 µg/mL
solubility at 30 min ([5]; volume ratio 1/2, organic solvent or mixture, MEK/EA, volume ratio ½, RT, read-out: Solubility): < 1000 µg/mL
solubility at 30 min ([5]; volume ratio 1/2, organic solvent or mixture, MEK/Ethyl formate, volume ratio ½, RT, read-out: Solubility): < 1000 µg/mL
solubility at 30 min ([5]; volume ratio 1/2, organic solvent or mixture, MEK/IPA, volume ratio ½, RT, read-out: Solubility): < 1000 µg/mL
solubility at 30 min ([5]; volume ratio 1/2, organic solvent or mixture, MEK/IPAC, volume ratio ½, RT, read-out: Solubility): < 1000 µg/mL
solubility at 30 min ([5]; volume ratio 1/2, organic solvent or mixture, MEK/diethyl ether, volume ratio ½, RT, read-out: Solubility): < 1000 µg/mL
solubility at 30 min ([5]; volume ratio 1/2, organic solvent or mixture, MEK/n-BuOH, volume ratio ½, RT, read-out: Solubility): < 1000 µg/mL
solubility at 30 min ([5]; volume ratio 1/2, organic solvent or mixture, MeOH/Acetone, volume ratio ½, RT, read-out: Solubility): < 14000 µg/mL
solubility at 30 min ([5]; volume ratio 1/2, organic solvent or mixture, MeOH/Diethyl ether, volume ratio ½, RT, read-out: Solubility): < 2000 µg/mL
solubility at 30 min ([5]; volume ratio 1/2, organic solvent or mixture, MeOH/EA, volume ratio ½, RT, read-out: Solubility): < 10000 µg/mL
solubility at 30 min ([5]; volume ratio 1/2, organic solvent or mixture, MeOH/Ethyl formate, volume ratio ½, RT, read-out: Solubility): < 25000 µg/mL
solubility at 30 min ([5]; volume ratio 1/2, organic solvent or mixture, MeOH/MEK, volume ratio ½, RT, read-out: Solubility): 24000 to 30000 µg/mL
solubility at 30 min ([5]; volume ratio 1/2, organic solvent or mixture, MeOH/n-BuOH, volume ratio ½, RT, read-out: Solubility): < 3000 µg/mL
solubility at 30 min ([5]; volume ratio 1/9, organic solvent or mixture, MeOH/Ethyl formate, volume ratio ⅑, RT, read-out: Solubility): < 1000 µg/mL
solubility at 30 min ([5]; volume ratio 1/9, organic solvent or mixture, MeOH/MEK, volume ratio ⅑, RT, read-out: Solubility): 7000 to 8000 µg/mL
Structure (SMILES): CC(=O)N1CCC(COc2cc(F)c3c(=O)[nH]c(CSC4CCOCC4)nc3c2)CC1 [Form II, 7-((1-acetylpiperidin-4-yl)methoxy)-5-fluoro-2-(((tetrahydro-2H-pyran-4-yl)thio)methyl)quinazolin-4(3H)-one]
